Measured values: US11040981B2, “Pyrrolotriazine compounds and methods of inhibiting TAM kinases” (Syros Pharmaceuticals, Inc., priority 2017, dated 2021)

Assays:
FLT3 = target: T1, FLT3 (Homo sapiens, UniProt P36888); assay: TR-FRET kinase activity assay, FLT3; assay type: biochemical; conditions: ATP at Km, 60 minutes
T1 sequence (P36888 27-993): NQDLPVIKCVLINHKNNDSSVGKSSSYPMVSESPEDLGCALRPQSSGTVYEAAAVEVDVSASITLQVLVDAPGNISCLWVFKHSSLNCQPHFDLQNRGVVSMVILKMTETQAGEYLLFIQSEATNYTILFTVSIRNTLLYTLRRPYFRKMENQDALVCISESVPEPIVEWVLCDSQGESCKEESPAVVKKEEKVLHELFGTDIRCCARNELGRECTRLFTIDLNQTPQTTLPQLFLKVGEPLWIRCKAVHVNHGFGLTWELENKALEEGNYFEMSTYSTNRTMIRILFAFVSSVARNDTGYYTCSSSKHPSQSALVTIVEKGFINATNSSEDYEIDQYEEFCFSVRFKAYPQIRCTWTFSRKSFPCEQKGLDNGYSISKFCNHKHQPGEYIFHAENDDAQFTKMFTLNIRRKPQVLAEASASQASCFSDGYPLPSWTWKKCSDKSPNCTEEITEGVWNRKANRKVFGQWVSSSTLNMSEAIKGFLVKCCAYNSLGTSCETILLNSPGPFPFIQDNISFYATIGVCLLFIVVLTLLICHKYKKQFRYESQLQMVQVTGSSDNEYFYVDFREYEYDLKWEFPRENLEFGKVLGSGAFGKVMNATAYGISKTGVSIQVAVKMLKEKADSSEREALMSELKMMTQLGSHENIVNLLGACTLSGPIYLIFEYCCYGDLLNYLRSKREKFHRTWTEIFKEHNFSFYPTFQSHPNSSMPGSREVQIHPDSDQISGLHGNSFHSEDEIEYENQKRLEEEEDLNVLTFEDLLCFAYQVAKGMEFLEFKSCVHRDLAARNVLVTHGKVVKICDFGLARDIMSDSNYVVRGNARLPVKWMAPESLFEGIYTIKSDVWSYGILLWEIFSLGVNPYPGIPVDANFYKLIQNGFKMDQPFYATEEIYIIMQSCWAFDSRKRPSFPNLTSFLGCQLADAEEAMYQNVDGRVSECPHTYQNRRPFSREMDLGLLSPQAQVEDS
Method in brief: (§1)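 Compounds were tested against each kinase with ATP set at its own Km and a labelled tyrosine peptide substrate. Following one hour at room temperature in buffer containing 10 mM MgCl2 and 1 mM DTT, phosphorylated product was detected by Europium antibody TR-FRET after EDTA quench, and IC50 values were calculated.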

AXL = target: T2, AXL (Homo sapiens, UniProt P30530); assay: TR-FRET kinase activity assay, AXL; assay type: biochemical; conditions: ATP at Km, 60 minutes
T2 sequence (P30530 26-894): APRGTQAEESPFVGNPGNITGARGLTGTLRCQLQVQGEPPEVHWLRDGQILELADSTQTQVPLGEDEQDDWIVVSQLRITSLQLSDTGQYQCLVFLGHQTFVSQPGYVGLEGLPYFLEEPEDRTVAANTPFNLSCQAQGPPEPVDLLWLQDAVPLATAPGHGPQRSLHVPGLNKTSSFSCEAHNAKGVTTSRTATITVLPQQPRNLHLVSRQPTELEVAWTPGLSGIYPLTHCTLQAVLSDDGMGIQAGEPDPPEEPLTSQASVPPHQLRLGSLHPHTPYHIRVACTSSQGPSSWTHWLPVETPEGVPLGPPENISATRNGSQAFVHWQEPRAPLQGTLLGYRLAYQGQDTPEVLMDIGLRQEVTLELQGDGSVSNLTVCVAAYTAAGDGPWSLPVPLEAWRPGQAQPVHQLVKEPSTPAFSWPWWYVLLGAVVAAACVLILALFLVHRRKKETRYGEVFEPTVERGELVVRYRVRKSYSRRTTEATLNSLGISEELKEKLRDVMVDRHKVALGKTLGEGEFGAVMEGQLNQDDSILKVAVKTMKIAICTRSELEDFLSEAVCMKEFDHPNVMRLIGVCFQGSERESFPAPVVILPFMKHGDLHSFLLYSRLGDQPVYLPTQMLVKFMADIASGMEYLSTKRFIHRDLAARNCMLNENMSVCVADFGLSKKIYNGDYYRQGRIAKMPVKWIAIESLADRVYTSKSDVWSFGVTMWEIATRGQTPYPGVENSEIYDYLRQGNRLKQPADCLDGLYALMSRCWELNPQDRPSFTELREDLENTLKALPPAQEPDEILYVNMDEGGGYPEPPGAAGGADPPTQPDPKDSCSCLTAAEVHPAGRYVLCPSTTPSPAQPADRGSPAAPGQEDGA
Method in brief: as §1

Structure (SMILES) | IC50 (FLT3) [nM] | IC50 (AXL) [nM]
C[C@@H](CC(F)(F)F)Nc1ncc2c(-c3cnn([C@@H]4CCOC4)c3)cc([C@H]3CC[C@H](O)CC3)n2n1 [Compound 289] | ≤ 100 | ≤ 100
COC[C@H](C)Nc1ncc2c(-c3ccnc(C)c3)cc(C3CCC4(CC3)NC(=O)NC4=O)n2n1 (mixture of isomers) [Compound 325, (S)-8-(2-((1-methoxypropan-2-yl)amino)-5-(2-methylpyridin-4-yl)pyrrolo[2,1-f][1,2,4]triazin-7-yl)-1,3-diazaspiro[4.5]decane-2,4-dione] | 1000 to 10000 | ≤ 100
CC[C@H](C)Nc1ncc2c(-c3ccc(CN4CCN(C)CC4)cc3)cc([C@H]3CC[C@H](O)CC3)n2n1 [Compound 118] | ≤ 100 | ≤ 100
Cc1nnc(Cn2cc(-c3cc([C@H]4CC[C@H](O)CC4)n4nc(N[C@@H](C)CC(F)(F)F)ncc34)cn2)o1 [Compound 296] | ≤ 100 | ≤ 100
CCCCC[C@H](C)Nc1ncc2c(N3CCNCC3)cc([C@H]3CC[C@H](O)CC3)n2n1 [Compound 114] | 100 to 1000 | ≤ 100
C[C@@H](CC(F)(F)F)Nc1ncc2c(-c3cncc(C(=O)N(C)C)c3)cc([C@H]3CC[C@H](O)CC3)n2n1 [Compound 310] | 100 to 1000 | ≤ 100
COC[C@H](C)Nc1ncc2c(-c3ccnc(N4CCN(S(C)(=O)=O)CC4)c3)cc([C@H]3CC[C@H](O)CC3)n2n1 [Compound 338] | 100 to 1000 | ≤ 100
COC[C@H](C)Nc1ncc2c(-c3ccc(CN4CCOCC4)cc3)cc([C@H]3CC[C@H](NC(C)=O)CC3)n2n1 [Compound 300, N-((trans)-4-(2-(((S)-1-methoxypropan-2-yl)amino)-5-(4-(morpholinomethyl)phenyl)pyrrolo[2,1-f][1,2,4]triazin-7-yl)cyclohexyl)acetamide] | 100 to 1000 | ≤ 100
CNc1c(N[C@H]2CC[C@H](c3cc(-c4ccc(CN5CCOCC5)cc4)c4cnc(N[C@@H](C)COC)nn43)CC2)c(=O)c1=O [Compound 316, 3-(((trans)-4-(2-(((S)-1-methoxypropan-2-yl)amino)-5-(4-(morpholinomethyl)phenyl)pyrrolo[2,1-f][1,2,4]triazin-7-yl)cyclohexyl)amino)-4-(methylamino)cyclobut-3-ene-1,2-dione] | ≤ 100 | ≤ 100
COC[C@H](C)Nc1ncc2c(-c3ccnc(OC4CCN(C)CC4)c3)cc([C@H]3CC[C@H](O)CC3)n2n1 [Compound 342] | 100 to 1000 | ≤ 100
CNS(=O)(=O)c1ccc(-c2cc([C@H]3CC[C@H](O)CC3)n3nc(N[C@@H](C)COC)ncc23)cn1 [Compound 336] | 100 to 1000 | ≤ 100
COC[C@H](C)Nc1ncc2c(-c3cnn(C4CN(CC(F)(F)F)C4)c3)cc([C@H]3CC[C@H](O)CC3)n2n1 [Compound 302] | 100 to 1000 | ≤ 100
C[C@@H](CC(F)(F)F)Nc1ncc2c(-c3cnn([C@H]4CCOC4)c3)cc([C@H]3CC[C@H](O)CC3)n2n1 [Compound 290] | ≤ 100 | ≤ 100
COC[C@H](C)Nc1ncc2c(-c3cnn(C(C)(C)C(=O)C4C[C@H]5COC[C@H]5C4)c3)cc([C@H]3CC[C@H](O)CC3)n2n1 (stereo partly drawn) [Compound 319] | 1000 to 10000 | ≤ 100
COC[C@H](C)Nc1ncc2c(-c3cnn(C4CN(C(C)=O)C4)c3)cc([C@H]3CC[C@H](O)CC3)n2n1 [Compound 286] | ≤ 100 | ≤ 100
CC(CC(F)(F)F)Nc1ncc2c(-c3cnc(C(=O)O)nc3)cc(C3CCC(O)CC3)n2n1 (stereo not drawn) [Compound 299] | 1000 to 10000 | ≤ 100
COC[C@H](C)Nc1ncc2c(-c3cnn([C@@H]4CCNC4=O)c3)cc([C@H]3CC[C@H](O)CC3)n2n1 [Compound 315] | 100 to 1000 | ≤ 100
CC(CC(F)(F)F)Nc1ncc2c(-c3cncc(S(C)(=O)=O)c3)cc(C3CCC(O)CC3)n2n1 (stereo not drawn) [Compound 273] | 100 to 1000 | ≤ 100
COC[C@H](C)Nc1ncc2c(-c3cnn(C(C)(C)C(=O)N4CCC5(COC5)C4)c3)cc([C@H]3CC[C@H](O)CC3)n2n1 [Compound 318] | 1000 to 10000 | ≤ 100
CNC(=O)C(C)(C)n1cc(-c2cc([C@H]3CC[C@H](O)CC3)n3nc(N[C@@H](C)COC)ncc23)cn1 [Compound 295] | 1000 to 10000 | ≤ 100
COC[C@H](C)Nc1ncc2c(-c3cnn(Cc4cnc(C)cn4)c3)cc([C@H]3CC[C@H](O)CC3)n2n1 [Compound 306] | 100 to 1000 | ≤ 100
COC[C@H](C)Nc1ncc2c(-c3ccnc(N4CCN(C(C)=O)CC4)c3)cc([C@H]3CC[C@H](O)CC3)n2n1 [Compound 344] | 100 to 1000 | ≤ 100
C[C@@H](CC(F)(F)F)Nc1ncc2c(-c3ccc(S(C)(=O)=O)nc3)cc([C@H]3CC[C@H](O)CC3)n2n1 [Compound 297] | ≤ 100 | ≤ 100
COC[C@H](C)Nc1ncc2c(-c3cnn(C4CN(C(=O)C5COC5)C4)c3)cc([C@H]3CC[C@H](O)CC3)n2n1 [Compound 293] | 100 to 1000 | ≤ 100

Results, then the molecule that gave them:

IC50 (FLT3) [nM] | IC50 (AXL) [nM] | Structure (SMILES)
≤ 100 | ≤ 100 | Cc1nnc(Cn2cc(-c3cc([C@H]4CC[C@H](O)CC4)n4nc(N[C@@H](C)COC(F)F)ncc34)cn2)o1 [Compound 312]
100 to 1000 | ≤ 100 | COC[C@H](C)Nc1ncc2c(-c3cnn(Cc4cnccn4)c3)cc([C@H]3CC[C@H](O)CC3)n2n1 [Compound 305]
≤ 100 | ≤ 100 | COC[C@H](C)Nc1ncc2c(-c3cnn(Cc4nnc(C)o4)c3)cc([C@H]3CC[C@H](O)CC3)n2n1 [Compound 277]
100 to 1000 | ≤ 100 | COC[C@H](C)Nc1ncc2c(-c3cnn(C4CN(CCC(F)(F)F)C4)c3)cc([C@H]3CC[C@H](O)CC3)n2n1 [Compound 291]
≤ 100 | ≤ 100 | Cc1ccc(-c2cc([C@H]3CC[C@H](O)CC3)n3nc(N[C@@H](C)COC(F)F)ncc23)cn1 [Compound 321]
≤ 100 | ≤ 100 | COCCn1cc(-c2cc([C@H]3CC[C@H](O)CC3)n3nc(N[C@@H](C)COC(F)F)ncc23)cn1 [Compound 274]
≤ 100 | ≤ 100 | COC[C@H](C)Nc1ncc2c(-c3cnn(Cc4ccnnc4)c3)cc([C@H]3CC[C@H](O)CC3)n2n1 [Compound 281]
≤ 100 | ≤ 100 | C[C@@H](CC(F)(F)F)Nc1ncc2c(-c3cnn(CCS(C)(=O)=O)c3)cc([C@H]3CC[C@H](O)CC3)n2n1 [Compound 288]
100 to 1000 | ≤ 100 | COCC(C)Nc1ncc2c(-c3cnn(Cc4ccc(=O)n(C)c4)c3)cc(C3CCC(O)CC3)n2n1 (stereo not drawn) [Compound 322]
100 to 1000 | ≤ 100 | COC[C@H](C)Nc1ncc2c(-c3cnn(Cc4nc(C)no4)c3)cc([C@H]3CC[C@H](O)CC3)n2n1 [Compound 292]
100 to 1000 | ≤ 100 | COC[C@H](C)Nc1ncc2c(-c3cnn(CCS(C)(=O)=O)c3)cc([C@H]3CC[C@H](O)CC3)n2n1 [Compound 280]
100 to 1000 | ≤ 100 | Cc1cc(-c2cc([C@H]3CC[C@H](O)CC3)n3nc(N[C@@H](C)COC(F)F)ncc23)ccn1 [Compound 313]
